Source: US20110152094A1, “Herbicidal compositions comprising flufenacet” (Bayer CropScience AG, priority 2009, published 2011)

Assays:
[1] = test system: MATCH resistant (Matricaria chamomilla); test: Greenhouse trial, PE application on resistant biotypes (test method 8); type: in vivo; details: resistant biotype, g of AS/ha: (A) 90, (B) 1200, (A)+(B) 90 + 1200, (C) 10
Procedure: (§1) In the standard design of the test, seeds of various broad-leaved weed and weed grass biotypes (origins) were sown in a 8-13 cm diameter pot filled with natural soil of a standard field soil (loamy silt; non-sterile) and covered with a covering soil layer of about 1 cm. The pots were then cultivated in a greenhouse (12-16 h of light, temperature day 20-22° C., night 15-18° C.) until the time of application. The pots were treated on a laboratory track sprayer with spray liquors comprising the compositions according to the invention, mixtures of the prior art or components used individually. Application of the active compounds or active compound combinations formulated as WG, WP, EC or otherwise was carried out at the appropriate growth stages of the plants. The application rate for the spray application was 100-600 l of water/ha. After the treatment, the plants were returned to the greenhouses.
(§2) About 3 weeks after the application, the soil action or/and foliar action was assessed visually according to a scale of 0-100% in comparison to an untreated comparative group: 0%=no noticeable effect compared to the untreated comparative group; 100%=full effect compared to the untreated comparative group.
(§3) (notes: the term “seeds” also includes vegetative propagation forms such as, for example, rhizome pieces; abbreviations used: h light=hours of illumination, g of AS/ha=gram of active substance per hectare, l/ha=liter per hectare, S=sensitive, R=resistant) • 1. Pre-emergence action against weeds: seeds of various broad-leaved weed and weed grass biotypes (origins) were sown in a 8-13 cm diameter pot filled with natural soil of a standard field soil (loamy silt; non-sterile) and covered with a covering soil layer of about 1 cm. The pots were then cultivated in a greenhouse (12-16 h of light, temperature day 20-22° C., night 15-18° C.) until the time of application. The pots were treated at the BBCH stage 00-10 of the seeds/plants on a laboratory track sprayer with spray liquors comprising the compositions according to the invention, mixtures or components used individually, as WG, WP, EC or other formulations. The application rate for the spray application was 100-600 l of water/ha. After the treatment, the plants were returned to the greenhouses and, when required, treated with fertilizer and watered. • 2. Post-emergence action against weeds: seeds of various broad-leaved weed and weed grass biotypes (origins) were sown in a 8-13 cm diameter pot filled with natural soil of a standard field soil (loamy silt; non-sterile) and covered with a covering soil layer of about 1 cm. The pots were then cultivated in a greenhouse (12-16 h of light, temperature day 20-22° C., night 15-18° C.) until the time of application. The pots were treated at various BBCH stages between 11-25 of the seeds/plants, i.e. generally between two to three weeks after the start of the cultivation, on a laboratory track sprayer with spray liquors comprising the compositions according to the invention, mixtures or components used individually, as WG, WP, EC or other formulations. The application rate for the spray application was 100-600 l of water/ha. After the treatment, the plants were returned to the greenhouses and, when required, treated with fertilizer and watered. • 3. Selective pre-emergence action: seeds of various crop species (origins) were sown in a 8-13 cm diameter pot filled with natural soil of a standard field soil (loamy silt; non-sterile) and covered with a covering soil layer of about 1 cm. The pots were then cultivated in a greenhouse (12-16 h of light, temperature day 20-22° C., night 15-18° C.) until the time of application. The pots were treated at the BBCH stage 00-10 of the seeds/plants on a laboratory track sprayer with spray liquors comprising the compositions according to the invention, mixtures or components used individually, as WG, WP, EC or other formulations. The application rate for the spray application was 100-600 l of water/ha. […]

[2] = test system: MATCH sensitive (Matricaria chamomilla); test: as above; type: in vivo; details: sensitive biotype, g of AS/ha: (A) 90, (B) 1200, (A)+(B) 90 + 1200, (C) 10
Procedure: as §1, §2, §3

COc1nc(C)nc(NC(=O)NS(=O)(=O)c2cc(I)ccc2C(=O)O)n1 [(C) iodosulfuron, iodosulfuron]
activity MATCH resistant (visual assessment, scale 0-100% vs untreated) [1]: 60%
activity MATCH sensitive (visual assessment, scale 0-100% vs untreated) [2]: 100%
